Measurements: PMC3280264 (PLoS ONE, 2012)
pIC50: −log10 of the molar value. Marks after values point to notes of the source that are not given here.

Tests used:
ZF rats = assay: 3-week treatment of ZF rats (body weight, UGE, calorimetry); assay type: in vivo; conditions: ZF rat, 3 mg/kg, 3 weeks
Description: (§1) Four rodent models were used in these experiments: (1) male C57BL/6J mice fed with a high-fat diet (D-12492 with 60 kcal% fat, Research Diets, Inc, New Jersey, USA) (diet-induced obese, insulin resistantmice [DIO]); (2) male C57BL/ksj-db/db hyperglycemic mice; (3) male Zucker fatty (ZF) obese, insulin resistant rats; and (4) male ZDF obese, hyperglycemic rats. All animals were housed according to standard procedures following a protocol approved by the IACUC in Drug Discovery at Johnson & Johnson Pharmaceutical Research & Development, LLC.
(§2) Body weight, food intake, and BG levels were monitored weekly. UGE and indirect calorimetry were conducted in the fourth week of treatment during the compound treatment. […] Body weight, food intake, and BG were measured weekly during the 19-day treatment period. UGE, body fat, and indirect calorimetric studies were conducted at the end of this study.

DIO mice = assay: 4-week treatment of DIO mice (body weight, UGE, calorimetry); assay type: in vivo; conditions: DIO mouse, 30 mg/kg, 4 weeks
Description: as §1, §2

ZDF rats [1] = assay: 4-week treatment of ZDF rats (glycemic control, OGTT); assay type: in vivo, rat; conditions: 4 weeks; for OGTT Ratio of insulin AUC/glucose AUC / Insulin / HbA1c / OGTT Plasma insulin (AUC0–120 min) / Fed plasma glucose / OGTT Blood glucose (AUC0–120 min): ZDF rats; for OGTT Ratio of insulin AUC/glucose AUC: vehicle 0.003±0.000; for Insulin: vehicle 5.2±0.4; for HbA1c: vehicle 11.5±0.3; for OGTT Plasma insulin (AUC0–120 min): vehicle 221±13; for Fed plasma glucose: vehicle 598.2±18.0; for OGTT Blood glucose (AUC0–120 min): vehicle 70,704±1289
Description: as §1
(§3) BG levels were monitored at 0, 0.5, 1, 3, 6, and 24 hours after dosing. […] BG levels were monitored weekly, and HbA1c, plasma glucose, and insulin levels were determined at the end of the 4-week treatment. An oral glucose tolerance test (OGTT) ([…] of body weight, given by gavage) was conducted in ZDF rats after 4 weeks of treatment. Blood was sampled at 0, 30, 60, and 120 minutes after glucose challenge from the tail vein for measurement of BG levels using a glucometer (One Touch Ultra, LifeScan, Milpitas, California, USA) and plasma insulin using ELISA method (ALPCO, Salem, New Hampshire, USA).

[2] = target: T1, glucose transporter 1 (GLUT1) (Rattus norvegicus, UniProt P11167); assay: 3H-2-deoxy-glucose uptake in L6 myoblast cells; assay type: cell-based
T1 construct: endogenous in cells; host or cells: L6 rat skeletal muscle myoblasts
T1 sequence (P11167 1-492): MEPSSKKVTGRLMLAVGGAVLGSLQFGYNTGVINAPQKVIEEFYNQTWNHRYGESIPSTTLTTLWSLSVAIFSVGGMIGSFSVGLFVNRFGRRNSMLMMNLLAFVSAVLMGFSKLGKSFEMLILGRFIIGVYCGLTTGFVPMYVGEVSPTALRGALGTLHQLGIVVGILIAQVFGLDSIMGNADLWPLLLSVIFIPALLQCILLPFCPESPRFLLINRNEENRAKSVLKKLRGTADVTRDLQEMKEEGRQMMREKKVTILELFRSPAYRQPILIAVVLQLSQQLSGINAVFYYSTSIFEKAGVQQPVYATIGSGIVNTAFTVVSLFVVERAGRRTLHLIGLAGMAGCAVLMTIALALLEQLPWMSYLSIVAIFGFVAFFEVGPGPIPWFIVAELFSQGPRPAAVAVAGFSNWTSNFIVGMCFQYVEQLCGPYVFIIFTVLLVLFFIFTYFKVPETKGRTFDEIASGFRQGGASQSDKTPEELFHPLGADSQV
Protocol: Cells were maintained in Dulbecco's modified Eagle's medium containing 5.6 mM glucose supplemented with 10% fetal bovine serum, were seeded in 24-well plates at a density of 3.0×10^5 cells/well and cultured for 24 hours in an atmosphere of 5% CO2 at 37°C. […] The transport reaction was initiated by adding 50 µl of 4.5 mM 2-DG (a substrate for GLUTs)/^3H-2-DG (0.625 µCi) followed by incubation for 15 minutes at room temperature. The 2-DG uptake was halted by aspiration of the incubation mixture. Cells were immediately washed 3 times with ice-cold PBS. Samples were extracted with 0.3 N NaOH, and radioactivity was determined by liquid scintillation (Packard, Boston, Massachusetts, USA).

db/db mice = assay: Single-dose blood glucose lowering in db/db mice; assay type: in vivo, mouse; conditions: for reduction of BG levels compared with vehicle-treated mice: 1 hour after treatment; for BG level: 6 hours, vehicle 479±3.9
Description: as §1, §3

ZDF rats [3] = assay: Graded glucose infusion, renal threshold for glucose excretion in ZDF rats; assay type: in vivo, rat; conditions: 1 mg/kg
Description: as §1
Two separate graded glucose infusion (GGI) studies were performed to characterize renal glucose handling in both untreated and treated ZDF rats. […] The RTG was determined as described below.
The relationship between UGE and BG is commonly described as a threshold relationship in which there is little UGE when BG<RTG and UGE increases with filtered glucose load when BG>RTG, where the filtered glucose load is equal to the BG concentration multiplied by the glomerular filtration rate (GFR). […] (1) Values of RTG were determined using nonlinear regression (nlinfit in Matlab version 7.10) with Equation 1 and the measured BG and UGE values.

inhibition at 10 µM ([2]; 10 µM, L6 myoblasts, read-out: inhibition of facilitative GLUT-mediated 3H-2-DG uptake): < 50%
pIC50 ([2]; 3H-2-DG uptake, rat L6 myoblast cells): < 5.00
Compound: Cc1ccc([C@@H]2O[C@H](CO)[C@@H](O)[C@H](O)[C@H]2O)cc1Cc1ccc(-c2ccc(F)cc2)s1 [canagliflozin, Canagliflozin]
Feeding efficiency index (body weight gain/food intake) (ZF rats; vehicle 0.30±0.01): 0.25±0.01
RER (ZF rats; vehicle 1.10±0.01): 1.06±0.01 ^b
UGE (ZF rats; vehicle 1.8±1.1): 29.10±3.5 ^b mg/4 h
Epididymal fat weight (ZF rats; vehicle 10.8±0.3): 9.5±0.3 ^b g
Liver weight (ZF rats; vehicle 28.5±0.8): 25.0±1.4 ^b g
Fed BG (ZF rats; vehicle 149.6±22.9): 118.9±4.3 ^b mg/dl
Body weight (ZF rats; vehicle 437.9±11.5): 408.1±7.7 ^b g
Total food intake (ZF rats; vehicle 645.3±21.2): 647.9 ± 18.9 g
Oxygen consumption (VO2) (ZF rats; vehicle 1560±28): 26.37 ± 0.55 mL/min/kg
RER (DIO mice; vehicle 0.79±0.01): 0.77±0.01 ^b
UGE (DIO mice; vehicle 2.4±0.6): 26.1±5.2 ^b mg/4 h
Body weight (DIO mice; vehicle 53.2±0.6): 49.6±1.0 ^b g
Fed BG (DIO mice; vehicle 199±16): 105±13 ^b mg/dl
Oxygen consumption (VO2) (DIO mice; vehicle 2364±29): 40.32 ± 1.82 mL/min/kg
OGTT Ratio of insulin AUC/glucose AUC (ZDF rats [1]; 3 mg/kg): 0.013±0.002 ^a (ng/ml•min)/mg/dl•min)
Insulin (ZDF rats [1]; 3 mg/kg): 7.9±0.1 ^a ng/ml
HbA1c (ZDF rats [1]; 3 mg/kg): 7.1±0.3 ^a %
OGTT Plasma insulin (AUC0–120 min) (ZDF rats [1]; 3 mg/kg): 342±27 ^a ng/ml•min
Fed plasma glucose (ZDF rats [1]; 3 mg/kg): 248.0±13.5 ^a mg/dl
OGTT Blood glucose (AUC0–120 min) (ZDF rats [1]; 3 mg/kg): 27,883±1806 ^a mg/dl•min
OGTT Ratio of insulin AUC/glucose AUC (ZDF rats [1]; 10 mg/kg): 0.017±0.002 ^a (ng/ml•min)/mg/dl•min)
Insulin (ZDF rats [1]; 10 mg/kg): 7.9±0.1 ^a ng/ml
HbA1c (ZDF rats [1]; 10 mg/kg): 5.6±0.3 ^a %
OGTT Plasma insulin (AUC0–120 min) (ZDF rats [1]; 10 mg/kg): 403±33 ^a ng/ml•min
Fed plasma glucose (ZDF rats [1]; 10 mg/kg): 182.0±7.1 ^a mg/dl
OGTT Blood glucose (AUC0–120 min) (ZDF rats [1]; 10 mg/kg): 23,989±1881 ^a mg/dl•min
OGTT Ratio of insulin AUC/glucose AUC (ZDF rats [1]; 30 mg/kg): 0.018±0.002 ^a (ng/ml•min)/mg/dl•min)
Insulin (ZDF rats [1]; 30 mg/kg): 7.8±0.1 ^a ng/ml
HbA1c (ZDF rats [1]; 30 mg/kg): 5.5±0.3 ^a %
OGTT Plasma insulin (AUC0–120 min) (ZDF rats [1]; 30 mg/kg): 288 ± 34 ng·min/mL
Fed plasma glucose (ZDF rats [1]; 30 mg/kg): 199.9±14.7 ^a mg/dl
OGTT Blood glucose (AUC0–120 min) (ZDF rats [1]; 30 mg/kg): 16,549±822 ^a mg/dl•min
increase in the insulin/glucose ratio following an OGTT, relative to vehicle-treated animals (ZDF rats [1]; ZDF rats, 3, 10 or 30 mg/kg): 4-to-6 fold
reduction of BG levels compared with vehicle-treated mice (db/db mice; single dose 1 mg/kg): 22%
BG level (db/db mice; single dose 1 mg/kg): 208 ± 9.6 mg/dL
reduction of BG levels compared with vehicle-treated mice (db/db mice; single dose 10 mg/kg): 36%
BG level (db/db mice; single dose 10 mg/kg): 118 ± 9.0 mg/dL
BG at which negligible UGE occurred (ZDF rats [3]; insulin + GGI study): < 90 mg/dL
renal threshold for glucose excretion (RTG) (ZDF rats [3]; untreated 415±12 mg/dl): 94 ± 10 mg/dL
